Columns and labels:
[1] = tested on: EGF-induced response of quiescent A431 cells; experiment: Effect of compound pretreatment on EGF-induced DMR response; assay type: cell-based, human; conditions: read-out: IC50 for suppression of EGF-induced response (amplitude of N-DMR signal)
Procedure, shortened: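 A431 cells were made quiescent by ≥16 h culture in no or ~0.1% FBS medium. After two HBSS/20 mM HEPES pH 7.4 buffer additions ≥15 min apart, compound was added and then stimulus. Real-time dynamic mass redistribution was tracked by resonant waveguide biosensor with angular interrogation.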

[2] = tested on: quiescent A431 cells; experiment: GPCR agonist-induced DMR and EGFR transactivation; assay type: cell-based, human
Protocol: Both A431 and CHO-K1 cells were grown in Dulbecco's modified Eagle's medium (DMEM) supplemented with 10% fetal calf serum, 100 μg/ml penicillin, and 100 μg/ml streptomycin. For cell culture, certain numbers of cells (2×10^5 to 1×10^6), either A431 or CHO-K1, were suspended in […] medium were placed in each well of a 96 well Corning Epic Biosensor microplate, and were cultured at 37° C. in air/5% CO2 for certain time until the cell density reached ˜90% and above (unless specified). The resulted cells were termed as “profilerating” cells. The “quiescent” cells were obtained by culturing the profilerating cells of desired confluencies with a medium containing no or little (˜0.1% fetal bovine serum (FBS)) for at least 16 hours.
During the assays, the cells in 100 μl medium were subject to two 25 μl HBSS buffer containing 20 mM HEPES, pH 7.4, each separated by at least 15 minutes before 50 μl stimulus-containing solution was applied. During all these steps, a parallel angular interrogation system was used to monitor the real time kinetics of cellular responses. For compound effect studies, a modified protocol was used which starts with 50 μl medium, and subject to sequential treatment: 25 μl HBSS buffer twice (each separated by at least 15 minutes), 50 μl compound solution and finally 50 μl stimulus-containing solution.

[3] = tested on: quiescent A431 cells; experiment: mβCD-induced response (cholesterol effluxing) on LID sensor; assay type: cell-based, human; conditions: 20 nM EGF or 1000 nM H7; pretreated at least 40 minutes
Description: The disclosed methods can be used to assay cholesterol transport and to, for example, screen for molecules that effect cholesterol transport, such as effluxing and uptake. […] This method is based on the measurement in real time of the effect of compounds on cholesterol effluxing. Depletion of cholesterol content on cell surface or intracellular pool results in the disappearance of microvilli located in the cell surface, resulting in the flatness of cells adherent on a surface. The flatness of cells leads to a positive DMR phase with increased signal. Based on this biological effect, we use reagents, as markers, that can either extract cholesterol from the cell surface (e.g., methyl-beta-cyclodextrin (mβCD), or high density lipoproteins (HDLs)), or bind or sequester cholesterol on the cell surface (e.g., saponin at relatively low concentrations). The changes obtained using optical biosensors can be used as an indicator of modulators that interfere with the cholesterol effuxing. FIG. 27 provides a schematic of a cholesterol pathway.

[4] = tested on: endogenous GPCRs in A431 cells; experiment: DMR optical biosensor profiling of GPCR agonists; assay type: cell-based, human; conditions: quiescent A431; first class = Gq-type, second = Gs-type, third = Gi-type, fourth = no significant DMR
[5] = tested on: A431 cells; experiment: Cell adhesion and spreading on RWG biosensor; assay type: cell-based, human; conditions: 100 nM; 5% FBS; room temperature
Description: The adhesion and spreading of cells at surfaces were well studied using optical imaging techniques, as well as optical biosensors such as SPR and RWG. […] Subsequently, attached cells undergo morphological changes known as spreading—a process that the cells increase their area in contact with the surface. Both attachment and spreading are dependent on the nature of the surface and of the medium in which the cells are suspended. Since cell adhesion and spreading obviously leads to both vertical and horizontal mass redistribution within the sensing volume, we first characterized the adhesion and spreading of A431 cells in 5% FBS in the absence and presence of vincristine. Vincristine is a plant alkaoid that inhibits microtubule assembly by binding to tubulin.
We studied the adhesion and spreading of A431 cells in 5% FBS in the absence and presence of vincristine at room temperature (25° C.). […] Following the addition of cell solution, there is an immediate and rapid increased signal, which is probably resulted from three events: the increased bulk index from the addition of the cell solution, the immobilization of serum proteins onto the sensor surface, and the sedimentation of cells and subsequent contact of cells with the surface. Afterwards, a prolonged increased signal occurred, indicating the slow process of cell spreading. Ultimately a saturated level was reached. […]

[6] = tested on: protease activated receptors PAR1 and PAR2; experiment: Fluo-3 Ca2+ mobilization assay with PAR agonists; assay type: cell-based, human; conditions: for Concentration required to induce a maximal response: [Ca2+]i; for Effect of preceding stimulation on trypsin-induced [Ca2+]i elevation: 200 nM trypsin; for Maximal [Ca2+]i elevation / EC50: quiescent A431, Fluo-3; for EC50: read-out: EC50 of [Ca2+]i increase
Protocol: A431 at passage 3 to 5 were grown in Costar™ 96 well clear cell culture microplates until ˜95% confluency, washed twice and starved overnight with the DMEM only, washed with 1×HBSS (1× regular Hank's balanced salt solution, 20 mM HEPES buffer, pH 7.0) in the presence of 2.5 mM probenicid, and labeled in the same buffer containing 4 μM Fluo-3 for 1 hour at room temperature. The cells were then washed twice with buffer, maintained with 100 μl 1×HBSS containing 2.5 mM probenicid. The assay was initiated by transferring 50 μl PAR agonist solution to the cell plate, and calcium signal was recorded over 6 minutes with a 6 sec interval using HTS7000 BioAssay Reader (PerkinElmer Life Science, Boston, Mass.). The assays were carried out at room temperature in order to allow direct comparison with optical sensing data.

[7] = tested on: protease activated receptors PAR1 and PAR2; assay type: cell-based, human
Procedure, shortened: (§1)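 A431 cells at passage 3-5 grown in DMEM/10% FBS at 37° C, 5% CO2 to ~95% confluency (~2-4 days). Compounds and PAR agonists prepared in 1×HBSS to match the refractive index of the cell medium for dynamic mass redistribution (DMR) read-out.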

[8] = biological target: T1, protease activated receptors PAR1 and PAR2 (Homo sapiens, UniProt P55085); assay type: cell-based
T1 construct: A431 cells which endogenously express PAR1 and PAR2; endogenous in cells; host or cells: A431
T1 sequence (P55085 26-397): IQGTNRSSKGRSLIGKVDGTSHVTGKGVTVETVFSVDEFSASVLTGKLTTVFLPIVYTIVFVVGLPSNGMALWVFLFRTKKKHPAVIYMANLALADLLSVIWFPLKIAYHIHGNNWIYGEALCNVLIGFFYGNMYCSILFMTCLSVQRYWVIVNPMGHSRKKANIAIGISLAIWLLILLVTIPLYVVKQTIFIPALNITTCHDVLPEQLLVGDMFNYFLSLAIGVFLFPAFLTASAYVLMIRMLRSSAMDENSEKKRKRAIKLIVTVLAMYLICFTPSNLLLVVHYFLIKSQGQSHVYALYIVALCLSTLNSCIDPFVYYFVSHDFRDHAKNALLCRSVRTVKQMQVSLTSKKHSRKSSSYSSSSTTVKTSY
Procedure, shortened: as §1

[9] = biological target: T2, protease activated receptors PAR1 and PAR2 (Homo sapiens, UniProt P25116); assay type: cell-based
T2 construct: A431 cells which endogenously express PAR1 and PAR2; endogenous in cells; host or cells: A431
T2 sequence (P25116 22-425): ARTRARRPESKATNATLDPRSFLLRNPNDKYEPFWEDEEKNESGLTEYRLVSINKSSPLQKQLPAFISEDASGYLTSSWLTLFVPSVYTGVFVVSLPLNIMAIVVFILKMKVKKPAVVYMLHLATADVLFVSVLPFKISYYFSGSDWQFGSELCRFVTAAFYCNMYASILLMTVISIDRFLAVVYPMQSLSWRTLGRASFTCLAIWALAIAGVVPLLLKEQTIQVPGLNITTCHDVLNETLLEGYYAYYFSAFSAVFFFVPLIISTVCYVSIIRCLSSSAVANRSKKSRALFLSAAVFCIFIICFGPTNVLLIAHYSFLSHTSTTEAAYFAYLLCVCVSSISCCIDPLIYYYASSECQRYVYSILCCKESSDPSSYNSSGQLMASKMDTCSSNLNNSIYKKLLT
Procedure, shortened: as §1

[10] = tested on: actin filaments in A431 cells; experiment: Texas Red-phalloidin fluorescence imaging; assay type: cell-based, human; conditions: 100 nM trypsin or 40 unit/ml thrombin; ~95% confluency
Protocol: Cells were grown on Corning® Epic™ 96 well biosensor microplates, starved for overnight with serum-free DMEM medium, chased with either trypsin or thrombin for certain time, fixed with 4% paraformaldehyde, permeabilized in phosphate-buffered saline (PBS) containing 0.2% Triton, and blocked with 1% bovine serum albumin (BSA). Afterwards, cells were incubated with 0.5 μM Texas Red-labeled phalloidin for 1 h at room temperature, and washed. After final washes and mounting, cells were examined with a 40× objective, equipped in a Zeiss Axioplan fluorescence microscope.

## COc1cc2ncnc(Nc3cccc(Cl)c3)c2cc1OC [AG1478, tyrphostin AG1478]
[1]
  IC50: ~0.194 µM
[2]; AG1478 10 μM
  Effect of pretreatment on bradykinin-induced response: can only partially attenuate the response
  Effect of pretreatment on carbachol- and clonidine-induced response: totally abolished the N-DMR phase, and significantly reduced the kinetics of the P-DMR phase

## CC1CNCCN1S(=O)(=O)c1cccc2cnccc12 (stereo not drawn) [H7]
[3]
  Effect of pretreatment on mβCD-induced response: led to the suppression of the mβCD-induced response

## Clc1cccc(Cl)c1N=C1NCCN1 [clonidine]
[4]
  Class of optical signature (DMR) induced by agonist: did not exhibited any significant DMR signals
[2]; bradykinin 100 nM, carbachol 10 μM, clonidine 1 μM
  GPCR agonist-induced DMR response curve: responses with almost identical features as those induced by low concentrations (2-8 nM) of EGF

## CC[C@]1(O)C[C@H]2CN(CCc3c([nH]c4ccccc34)[C@@](C(=O)OC)(c3cc4c(cc3OC)N(C=O)[C@H]3[C@@](O)(C(=O)OC)[C@H](OC(C)=O)[C@]5(CC)C=CCN6CC[C@]43[C@@H]65)C2)C1 [vincristine]
[5]
  Effect on cell adhesion and spreading signatures: suppressed not only both the initial and total responses, but also reduced the kinetics of cell spreading
  Reduction of total change in incident angle vs absence of compound: about 20%

## SLIGKV [SLIGKV-amide, PAR2-AP]
[4]
  Class of optical signature (DMR) induced by agonist: first class of optical signatures
[6]
  Concentration required to induce a maximal response: 20 µM
  Maximal [Ca2+]i elevation: 52±6.3%
  EC50: 3.8 ± 0.4 µM
[6]; interval 6 min
  Effect of preceding stimulation on trypsin-induced [Ca2+]i elevation: significantly attenuated but not completely eliminates the trypsin-induced [Ca^2+]i elevation
[6]; thrombin 40 unit/ml first, interval 6 min
  [Ca2+]i elevation after preceding stimulation with thrombin: 48.5±3.8%
[7]; interval about 1 hour
  Effect of preceding stimulation on trypsin-induced DMR signal: significantly suppresses but not completely eliminates the trypsin-induced DMR signal
[8]
  DMR signal after preceding stimulation with thrombin: induced the DMR signal similar to that obtained without the preceding stimulation

## SLIGLR [SLIGLR-amide, PAR2-AP]
[4]
  Class of optical signature (DMR) induced by agonist: first class of optical signatures
[6]
  Concentration required to induce a maximal response: 20 µM
  Maximal [Ca2+]i elevation: 64±3.7%
  EC50: 2.5 ± 0.3 µM
[6]; interval 6 min
  Effect of preceding stimulation on trypsin-induced [Ca2+]i elevation: significantly attenuated but not completely eliminates the trypsin-induced [Ca^2+]i elevation
[7]; interval about 1 hour
  Effect of preceding stimulation on trypsin-induced DMR signal: significantly suppresses but not completely eliminates the trypsin-induced DMR signal
[8]
  DMR signal after preceding stimulation with thrombin: induced the DMR signal similar to that obtained without the preceding stimulation

## YFLLRNP [PAR1 specific partial agonist]
[6]; concentrations up to 160 μM
  [Ca2+]i elevation by compound alone: did not induce any significantly elevation of [Ca^2+]i
[6]; pretreatment with 80 μM, n=5
  [Ca2+]i elevation mediated by 200 nM trypsin after pretreatment: 48.3±4.5%
[7]; 100 or 200 nM trypsin, modulators 10 μM
  Effect of pretreatment on trypsin-mediated DMR signal: only partially attenuated both SFFLR-amide and trypsin-mediated DMR
[7]; SFFLR-amide 20 μM, highest dose examined
  Effect of pretreatment on SFFLR-amide-mediated DMR: only partially attenuated both SFFLR-amide and trypsin-mediated DMR
[9]
  DMR signal stimulated by compound alone: only at high doses stimulated significant DMR signals
[8]; SLIGKV-amide 20 μM
  Effect of pretreatment on PAR2-AP GLIGKV-mediated DMR signal: no obvious effect on the PAR2-AP GLIGKV-mediated DMR signal

## trypsin
[4]
  Class of optical signature (DMR) induced by agonist: first class of optical signatures
[6]
  Concentration required to induce a maximal response: 0.4 µM
  Maximal [Ca2+]i elevation: 100±6.3%
  EC50: 0.0457 ± 0.0058 µM
[6]; then 40 unit/ml thrombin, 20 μM SFFLR-amide, GLIGKV-amide, GLIGLR-amide or 200 nM trypsin, interval 6 min
  Effect of preceding stimulation on [Ca2+]i elevation by subsequent PAR agonists: induced almost no [Ca^2+]i elevation
[6]; trypsin vs thrombin
  Maximal [Ca2+]i elevation relative to thrombin: approximately 2 fold
[7]; SFFLR-amide, GLIGKV-amide, GLIGLR-amide, interval about 1 hour
  Effect of preceding stimulation on DMR signal induced by PAR-APs: significantly suppressed the DMR signal induced by either of three PAR-APs
[7]; interval about 1 hour
  Effect of preceding stimulation on DMR signal induced by trypsin or thrombin: completely eliminated the DMR signal induced by either trypsin (data not shown) or thrombin
  Effect of pretreatment on DMR mediated by bradykinin: little effect on the DMR mediated by bradykinin
[10]
  Reorganization of actin filaments: triggered significant cytoskeletal reorganization after about 10 min
